Measurements from US20180207249A1, “METHOD AND VACCINE COMPRISING COPOLYMER 1 FOR TREATMENT OF PSYCHIATRIC DISORDERS” (YEDA RESEARCH AND DEVELOPMENT CO. LTD., priority 2003, published 2018).
Counter-ions that a name gives are not always drawn.

Assays:
[1] = test system: C57BL/6J mice injected with MK-801 or AMPH; assay: Prepulse inhibition (PPI) of the acoustic startle response after psychotomimetic drug; assay type: in vivo, mouse; details: vehicle (PBS/CFA)-immunized C57BL/6J mice; MK-801 0.1 mg/kg i.p. or AMPH 2.5 mg/kg i.p.
Procedure: (§1) (iii) Immunization. Each animal was injected with a total of 100 μg of Cop-1 emulsified in an equal volume of complete Freund's adjuvant (CPA) containing 5 mg/ml of Mycobacteria H37 RA (Difco). The emulsion, in a total volume of 0.1 mL, was injected into the flank 1 week before the mouse was first injected with a psychotomimetic drug. Control mice were injected with an equal volume of phosphate-buffered saline (PBS) emulsified in CFA.
(vi) Drug solutions. Fresh solutions of dizocilpine maleate (MK-801; Sigma-Aidrich) were prepared in physiological saline (0.9% NaCl in sterile distilled water) for each batch of mice. […]
(viii) Prepulse inhibition (PPT). […] Acoustic PPI was measured by prepuise plus pulse trials consisting of a 2-ms prepuise, 100 ms delay, and then a 40-ms, 120-dB startle pulse. […]
PPI was calculated as a percentage score for each acoustic prepulse trial type: % PPI=100. {[(startle response for prepuise+pulse)/(startle response for pulse-alone)]×100}. The magnitude of the acoustic startle response was calculated as the average response to all of the pulse-alone trials, excluding the first and last blocks of five pulse-alone trials each. […]
(xi) Acoustic startle response (ASR). […] The ASR and pre-pulse inhibition were measured using two ventilated startle chambers (SR-LAB system, San Diego Instruments, San Diego, Calif.). […] These readings (signals) were digitized and stored in a computer. […]

[2] = test system: C57BL/6J mice injected with MK-801 or AMPH; assay: Morris water maze (MWM) spatial learning/memory task after psychotomimetic drug; assay type: in vivo, mouse; details: C57BL/6J mice; MK-801 0.1 mg/kg i.p. or AMPH 2.5 mg/kg i.p.; relative to naive normal mice
Procedure: as §1
(vi) Drug solutions. Fresh solutions of dizocilpine maleate (MK-801; Sigma-Aidrich) were prepared in physiological saline (0.9% NaCl in sterile distilled water) for each batch of mice. Physiological saline was also used as a vehicle for D-amphetamine sulfate (AMPH: Sigma). MK-801. (0.1 mg/kg) or AMPH (2.5 mg/kg) or sahne was injected i.p., in a total volume of 5 ml per kg of body weight. Mice were injected with MK-801, AMPH, or vehicle 15 min before being subjected to behavioral tests.
(vii) Morris water maze (MWM) behavioral test. Spatial learning/memory was assessed by performance on a hippocampal-dependent visuospatial learning task in the MWM. Mice were given four trials per day, for four consecutive days, to find a hidden platform located 1.5 cm below the water surface in a pool 1.4 m in diameter. Within the testing room only distal visuo-spatial cues were available to the mice for location of the submerged platform. The escape latency, i.e., the time required by the mouse to find and climb onto the platform, was recorded for up to 60 s. Each mouse was allowed to remain on the platform for 30 s, and was then moved from the maze to its home cage. […] The inter-trial interval was 30 s. On day 5, the platform was removed from the pool, and each mouse was tested by a probe trial for 60 s. On days 6-7 the platform was placed at the opposite, location, and the mouse was retrained in four sessions. Data were recorded by using an EthoVision automated tracking system (Noldus Information Technology, Wageningen, The Netherlands). […]

Cop-1-reactive T cells = assay: ELISA of BDNF secreted by Cop-1-reactive T cells; assay type: cell-based, Lewis rats; details: 48 h stimulation with antigen; for BDNF secreted by Cop-1-reactive T cells (mean): mean of three independent experiments, no antigen 400
Procedure: (iv) T-cell lines. Ten days after Cop-1 immunization, T-cell lines were generated from draining lymph node cells obtained from Lewis rats immunized with Cop-1 emulsified in CFA. The lymph nodes were surgically removed, dissociated, washed, and then activated with the antigen (10 μg/ml) in stimulation medium as previously reported (Kipnis et al., 2000). The T-cells lines were expanded by repeated stimulation and propagation.
(v) Enzyme-linked immunosorbent assay. T cell-reactive Cop-1 cells were grown for 1 week in a propagation medium, then washed with PBS and re-suspended in stimulation medium. The cultured T cells (0.5×10^6 cells/mL) were then incubated, in the presence of irradiated thymocytes (10^7 cells/mL), with concanavalin A (Con A; 1.25 μg/mL), myelin basic protein (MRP; 10 μg/ml), Cop-1 (10 μg/mL), ovalbumin (OVA; 10 μg/mL), or no antigen, in stimulation medium. After 48 h the cells were centrifaged and their supernatants were collected and sampled. Concentrations of brain-derived neurotrophic factor (BDNF) in the samples were determined with a sensitive sandwich ELISA. In brief 96-well flat-bottomed plates were coated with a chicken anti-human BDNF antibody (Promega, Madison, Wis.) in 0.025 M NaHCO3 and 0.025 M Na2CO3 (pH 8.2). Recombinant human BDNF (used as a standard; Research Diagnostics, Flanders, N.J.) was used in serial dilutions in blocking solution containing 3% bovine serum albumin, 0.05% polyoxyethylene-sorbitan monolaurate (Tween-20), and 1% fetal calf serum in PBS (pH 8.2). Bound BDNF was detected by incubating the plates with a mouse anti-human BDNF antibody (Research Diagnostics) and then with peroxidase-conjugated goat anti-mouse IgG (Jackson ImmunoResearch, West Grove, Pa.) in blocking solution. The plates were developed using a 3,3′,5,5′-tetramethylbenzidine liquid substrate system (Sigma-Aldrich). The reaction was stopped by adding 1M H3PO4, and the optical density was determined at 450 nm. Results for each experiment were calculated as the amount of secreted BDNF per 1 mL of sample, after subtraction of background levels of the irradiated thymocytes incubated with the stimulation medium.
Cop-1-reactive T cells were cultured for 48 h with Cop-1, MBP, ovalbumin, or concanavalin A in stimulation medium. T cell supernatants were collected and subjected to sandwich ELISA. […] Values are mean values (pg/ml) +/− SE (from three independent experiments) of the amounts of BDNF secreted by Cop-1-specific T cells in response to stimulation by various antigens.

C[C@H](N)Cc1ccccc1 [AMPH, D-amphetamine sulfate]
Effect of psychotomimetic drug on PPI of the ASR [1]: significantly disrupted PPI
Effect of psychotomimetic drug on MWM spatial learning and memory performance [2]: significantly impaired

C[C@]12N[C@H](Cc3ccccc31)c1ccccc12 [MK-801, (+)dizocilpine maleate]
Effect of psychotomimetic drug on PPI of the ASR [1]: significantly disrupted PPI
Effect of psychotomimetic drug on MWM spatial learning and memory performance [2]: significantly impaired

concanavalin A [Con A]
BDNF secreted by Cop-1-reactive T cells (mean) (Cop-1-reactive T cells): 1100 pg/mL

B1: myelin basic protein (protein, UniProt P02686 1-304, looked up)
Myelin basic protein: MGNHAGKRELNAEKASTNSETNRGESEKKRNLGELSRTTSEDNEVFGEADANQNNGTSSQDTAVTDSKRTADPKNAWQDAHPADPGSRPHLIRLFSRDAPGREDNTFKDRPSESDELQTIQEDSAATSESLDVMASQKRPSQRHGSKYLATASTMDHARHGFLPRHRDTGILDSIGRFFGGDRGAPKRGSGKDSHHPARTAHYGSLPQKSHGRTQDENPVVHFFKNIVTPRTPPPSQGKGRGLSLSRFSWGAEGQRPGFGYGGRASDYKSAHKGFKGVDAQGTLSKIFKLGGRDSRSGSPMARR
Secretion of BDNF by Cop-1-reactive T cells compared with unstimulated T cells (Cop-1-reactive T cells): significantly increased
BDNF secreted by Cop-1-reactive T cells (mean) (Cop-1-reactive T cells): 1500 pg/mL

B2: ovalbumin (protein, UniProt P01012 2-386, looked up)
Ovalbumin: GSIGAASMEFCFDVFKELKVHHANENIFYCPIAIMSALAMVYLGAKDSTRTQINKVVRFDKLPGFGDSIEAQCGTSVNVHSSLRDILNQITKPNDVYSFSLASRLYAEERYPILPEYLQCVKELYRGGLEPINFQTAADQARELINSWVESQTNGIIRNVLQPSSVDSQTAMVLVNAIVFKGLWEKAFKDEDTQAMPFRVTEQESKPVQMMYQIGLFRVASMASEKMKILELPFASGTMSMLVLLPDEVSGLEQLESIINFEKLTEWTSSNVMEERKIKVYLPRMKMEEKYNLTSVLMAMGITDVFSSSANLSGISSAESLKISQAVHAAHAEINEAGREVVGSAEAGVDAASVSEEFRADHPFLFCIKHIATNAVLFFGRCVSP
BDNF secreted by Cop-1-reactive T cells (mean) (Cop-1-reactive T cells): 440 pg/mL
